Laboratory results: patent US6984643B2, “2,5-substituted pyrimidine derivatives-CCR-3 receptor antagonists” (Roche Palo Alto LLC, priority 2002, dated 2006)

Each compound was assayed against T1, CCR-3 receptor (Homo sapiens, UniProt P51677) (assay: CCR-3 Receptor Binding Assay in vitro (inhibition of 125I eotaxin binding to CCR-3 L1.2 transfectant cells)). Conditions: concentration reducing 125I-eotaxin binding to CCR-3 L1.2 transfected cells by 50%; read-out: CCR-3 IC50.
T1 construct: expressed in transfected cells; host or cells: L1.2 (murine pre-B lymphoma line)
T1 sequence (P51677 1-355): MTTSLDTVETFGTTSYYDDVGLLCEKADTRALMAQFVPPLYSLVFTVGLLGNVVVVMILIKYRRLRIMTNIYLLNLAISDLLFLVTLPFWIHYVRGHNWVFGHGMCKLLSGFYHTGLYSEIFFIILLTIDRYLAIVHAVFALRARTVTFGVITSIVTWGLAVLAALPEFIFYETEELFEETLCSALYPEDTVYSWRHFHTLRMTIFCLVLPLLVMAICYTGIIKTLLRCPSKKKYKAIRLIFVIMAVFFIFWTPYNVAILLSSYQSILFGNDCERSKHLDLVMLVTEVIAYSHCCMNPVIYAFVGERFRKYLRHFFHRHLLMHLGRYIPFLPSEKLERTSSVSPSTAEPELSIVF
Procedure: The CCR-3 antagonistic activity of the compounds of the invention was determined by their ability to inhibit the binding of ^125I eotaxin to CCR-3 L1.2 transfectant cells (see Ponath, P. D. et al., J. Exp. Med., Vol. 183, 2437-2448, (1996)).
The assay was performed in Costar 96-well polypropylene round bottom plates. Test compounds were dissolved in DMSO and then diluted with binding buffer (50 mM HEPES, 1 mM CaCl2, 5 mM MgCl2, 0.5% bovine serum albumin (BSA), 0.02% sodium azide, pH 7.24) such that the final DMSO concentration was 2%. Each well was filled with 25 μl of the test solution or only buffer with DMSO (control samples) followed by the addition of 25 μl of ^125I-eotaxin (100 pmol) (NEX314, New England Nuclear, Boston, Mass.) and 1.5×10^5 of the CCR-3 L1.2 transfected cells in 25 μl binding buffer. The final reaction volume was 75 μl.
After incubating the reaction mixture for 1 h at room temperature, the reaction was terminated by filtering the reaction mixture through polyethylenimine treated Packard Unifilter GF/C filter plate (Packard, Chicago, Ill.). The filters were washed four times with ice cold wash buffer containing 10 mM HEPES and 0.5M sodium chloride (pH 7.2) and dried at 65° C. for approximately 10 min. 25 μl/well of Microscint-20™ scintillation fluid (Packard) was added and the radioactivity retained on the filters was determined by using the Packard TopCount™.
The IC50 value (concentration of test compound required to reduce ^125I-eotaxin binding to the CCR-3 L 1.2 transfected cells by 50%) for compounds in Table I of the invention was between 0.02 and 200 μM, preferably between 0.02 and 10 μM.

Row | IC50 | Compound
1 | 0.025 µM | COc1ccc(-c2cnc(SCC(=O)NCC3CCCN(Cc4ccc5cc[nH]c5c4)C3)nc2)cc1OC (stereo not drawn) [Compound 1]
2 | 0.029 µM | COc1ccc(-c2cnc(SCC(=O)NCC3CCCN(Cc4ccc(Cl)c(Cl)c4)C3)nc2)cc1OC (stereo not drawn) [Compound 2, N-[1-(3,4-dichloro-benzyl)-piperidin-3-ylmethyl]-2-[5-(3,4-dimethoxy-phenyl)-pyrimidin-2-ylsulfanyl]-acetamide]
3 | 0.107 µM | COc1ccc(-c2cnc(CCC(=O)NCC3CCCN(Cc4ccc(Br)c(Br)c4)C3)nc2)cc1OC (stereo not drawn) [Compound 8, N-[1-(3,4-dibromo-benzyl)-piperidin-3-ylmethyl]-3-[5-(3,4-dimethoxy-phenyl)-pyrimidin-2-yl]-propionamide]
4 | 0.152 µM | COc1ccc(-c2cnc(CCC(=O)NCC3CCCN(Cc4ccc(Cl)c(Cl)c4)C3)nc2)cc1OC (stereo not drawn) [Compound 9, N-[1-(3,4-dichloro-benzyl)-piperidin-3-ylmethyl]-3-[5-(3,4-dimethoxy-phenyl)-pyrimidin-2-yl]-propionamide]
5 | 0.164 µM | COc1ccc(-c2cnc(CCC(=O)NCC3CCCN(Cc4ccc(Cl)c(Cl)c4)C3)nc2)cc1OC (stereo not drawn) [Compound 10, N-[1-(3,4-dichloro-benzyl)-piperidin-3-ylmethyl]-3-[5-(3,4-dimethoxy-phenyl)-pyrimidin-2-yl]-propionamide]
6 | 0.205 µM | COc1ccc(-c2cnc(SCC(=O)NCC3CCCN(Cc4ccc5c(c4)OCO5)C3)nc2)cc1OC (stereo not drawn) [Compound 13, N-(1-benzo[1,3]-dioxol-5-ylmethyl-piperidin-3-ylmethyl]-2-[5-(3,4-dimethoxy-phenyl)-pyrimidin-2-ylsulfanyl]-acetamide]
7 | 0.263 µM | COc1ccc(-c2cnc(SCC(=O)NCC3CCCN(Cc4ccc5ccccc5c4)C3)nc2)cc1OC (stereo not drawn) [Compound 15, 2-[5-(3,4-dimethoxy-phenyl)-pyrimidin-2-ylsulfanyl]-N-(1-naphthalen-2-yl-methyl-piperidin-3-ylmethyl)-acetamide]
8 | 0.276 µM | COc1ccc(-c2cnc(SCC(=O)NCC3CCCN(Cc4ccc5c(c4)CCC5)C3)nc2)cc1OC (stereo not drawn) [Compound 16, 2-[5-(3,4-dimethoxy-phenyl)-pyrimidin-2-ylsulfanyl]-N-(1-indan-5-ylmethyl-piperidin-3-ylmethyl)-acetamide]
9 | 0.403 µM | COc1ccc(-c2cnc(CCC(=O)NCC3CCCN(Cc4cccc(Cl)c4Cl)C3)nc2)cc1 (stereo not drawn) [Compound 23, N-[1-(2,3-dichloro-benzyl)-piperidin-3-ylmethyl]-3-[5-(4-methoxy-phenyl)-pyrimidin-2-yl]-propionamide]
10 | 0.507 µM | COc1ccc(-c2cnc(OCC(=O)NCC3CCCN(Cc4cccc(Cl)c4Cl)C3)nc2)cc1OC (stereo not drawn) [Compound 26, N-[1-(2,3-dichloro-benzyl)-piperidin-3-ylmethyl]-2-[5-(3,4-dimethoxy-phenyl)-pyrimidin-2-yloxy]-acetamide]
11 | 0.731 µM | COc1ccc(-c2cnc(SCC(=O)NCC3CCCN(Cc4ccc5cc[nH]c5c4)C3)nc2)cc1 (stereo not drawn) [Compound 30]
12 | 0.973 µM | COc1ccc(-c2cnc(SCC(=O)NCC3CCCN(Cc4ccc(Cl)c(F)c4)C3)nc2)cc1OC (stereo not drawn) [Compound 33, N-[1-(4-chloro-3-fluoro-benzyl)-piperidin-3-ylmethyl]-2-[5-(3,4-dimethoxy-phenyl)-pyrimidin-2-ylsulfanyl]-acetamide]
13 | 0.994 µM | COc1ccc(-c2cnc(CCC(=O)NCC3CCCN(Cc4ccc5c(c4)CCC5)C3)nc2)cc1OC (stereo not drawn) [Compound 34, 3-[5-(3,4-dimethoxy-phenyl)-pyrimidin-2-yl]-N-(1-indan-5-yl-methyl-piperidin-3-ylmethyl)-propion-amide]
14 | 1.06 µM | COc1ccc(-c2cnc(SCC(=O)NCC3CCCN(Cc4ccccc4)C3)nc2)cc1OC (stereo not drawn) [Compound 36, N-(1-benzyl-piperidin-3-ylmethyl)-2-[5-(3,4-dimethoxy-phenyl)-pyrimidin-2-ylsulfanyl]-acetamide]
15 | 1.35 µM | O=C(CSc1ncc(-c2ccccc2)cn1)NCC1CCCN(Cc2ccc(O)c(O)c2)C1 (stereo not drawn) [Compound 38, N-[1-(3,4-dihydroxy-benzyl)-piperidin-3-ylmethyl]-2-(5-phenyl-pyrimidin-2-ylsulfanyl)-acetamide]
16 | 1.37 µM | COc1ccc(-c2cnc(SCC(=O)NCC3CCCN(Cc4ccc(F)c(F)c4)C3)nc2)cc1 (stereo not drawn) [Compound 39, N-[1-(3,4-difluoro-benzyl)-piperidin-3-ylmethyl]-2-[5-(4-methoxy-phenyl)-pyrimidin-2-ylsulfanyl]-acetamide]
17 | 1.39 µM | COc1ccc(-c2cnc(SCC(=O)NCC3CCCN(Cc4ccc5c(c4)CCC5)C3)nc2)cc1 (stereo not drawn) [Compound 40]
18 | 1.56 µM | O=C(CSc1ncc(-c2ccccc2)cn1)NCC1CCCN(Cc2ccc3c(c2)OCO3)C1 (stereo not drawn) [Compound 41, N-(1-benzo[1,3]-dioxol-5-ylmethyl-piperidin-3-ylmethyl)-2-(5-phenyl-pyrimidin-2-ylsulfanyl)-acetamide]
19 | 1.56 µM | O=C(CSc1ncc(-c2ccccc2)cn1)NCC1CCCN(Cc2ccc(Cl)c(Cl)c2)C1 (stereo not drawn) [Compound 42, N-[1-(3,4-dichloro-benzyl)-piperidin-3-ylmethyl]-2-(5-phenyl-pyrimidin-2-ylsulfanyl)-acetamide]
20 | 2.08 µM | COc1ccc(-c2cnc(CCC(=O)NCC3CCCN(Cc4ccc5c(c4)OCO5)C3)nc2)cc1 (stereo not drawn) [Compound 44, N-(1-benzo[1,3]-dioxol-5-ylmethyl-piperidin-3-ylmethyl)-3-[5-(4-methoxy-phenyl)-pyrimidin-2-yl]-propionamide]
21 | 2.11 µM | COc1ccc(-c2cnc(OCC(=O)NCC3CCCN(Cc4cccc(Cl)c4Cl)C3)nc2)cc1 (stereo not drawn) [Compound 46, N-[1-(2,3-dichloro-benzyl)-piperidin-3-ylmethyl]-2-[5-(4-methoxy-phenyl)-pyrimidin-2-yloxy]-acetamide]
22 | 2.41 µM | O=C(CSc1ncc(-c2ccccc2)cn1)NCC1CCCN(Cc2ccc(Cl)c(C(F)(F)F)c2)C1 (stereo not drawn) [Compound 48, N-[1-(4-chloro-3-trifluoromethyl-benzyl)-piperidin-3-ylmethyl]-2-(5-phenyl-pyrimidin-2-yl-sulfanyl)-acetamide]
23 | 2.81 µM | O=C(CSc1ncc(-c2ccccc2)cn1)NCC1CCCN(Cc2ccc(F)c(F)c2)C1 (stereo not drawn) [Compound 49, N-[1-(3,4-difluoro-benzyl)-piperidin-3-ylmethyl]-2-(5-phenyl-pyrimidin-2-ylsulfanyl)-acetamide]
24 | 4.64 µM | COc1ccc(-c2cnc(OCC(=O)NCC3CCCN(Cc4ccc5c(c4)OCO5)C3)nc2)cc1OC (stereo not drawn) [Compound 51, N-(1-benzo[1,3]-dioxol-5-ylmethyl-piperidin-3-ylmethyl)-2-[5-(3,4-dimethoxy-phenyl)-pyrimidin-2-yloxy]-acetamide]
25 | 5.74 µM | COc1cccc(-c2cnc(OCC(=O)NCC3CCCN(Cc4cccc(Cl)c4Cl)C3)nc2)c1 (stereo not drawn) [Compound 52, N-[1-(2,3-dichloro-benzyl)-piperidin-3-ylmethyl]-2-[5-(3-methoxy-phenyl)-pyrimidin-2-yloxy]-acetamide]
26 | 12 µM | COc1cc(-c2cnc(CCC(=O)NCC3CCCN(Cc4cccc(Cl)c4Cl)C3)nc2)cc(OC)c1OC (stereo not drawn) [Compound 57, N-[1-(2,3-dichloro-benzyl)-piperidin-3-ylmethyl]-3-[5-(3,4,5-trimethoxy-phenyl)-pyrimidin-2-yl]-propionamide]
27 | 21 µM | COc1cc(-c2cnc(OCC(=O)NCC3CCCN(Cc4ccc(Cl)c(Cl)c4)C3)nc2)cc(OC)c1OC (stereo not drawn) [Compound 58, N-[1-(3,4-dichloro-benzyl)-piperidin-3-ylmethyl]-2-[5-(3,4,5-trimethoxy-phenyl)-pyrimidin-2-yloxy]-acetamide]
28 | 128 µM | COc1cccc(-c2cnc(OCC(=O)NCC3CCCN(Cc4ccc5c(c4)OCO5)C3)nc2)c1 (stereo not drawn) [Compound 62, N-(1-benzo[1,3]-dioxol-5-ylmethyl-piperidin-3-ylmethyl)-2-[5-(3-methoxy-phenyl)-pyrimidin-2-yloxy]-acetamide]
29 | 0.066 µM | COc1ccc(-c2cnc(SCC(=O)NCC3CCCN(Cc4cc(Br)c(Br)s4)C3)nc2)cc1OC (stereo not drawn) [Compound 63, N-[1-(4,5-dibromo-thiophen-2-ylmethyl)-piperidin-3-ylmethyl]-2-[5-(3,4-dimethoxy-phenyl)-pyrimidin-2-ylsulfanyl]-acetamide]

Same assay, conditions: stated in text for the compound where Z is —C(═O)—; assay not given; read-out: IC50

Row | IC50 | Compound
30 | 1.92 µM | COc1ccc(-c2cnc(SCC(=O)NCC3CCCN(C(=O)CCc4ccc(Cl)cc4)C3)nc2)cc1OC (racemic) [Compound 70, (±)-N-{1-[3-(4-Chlorophenyl)-propionyl]-piperidin-3-ylmethyl}-2-[5-(3,4-dimethoxy-phenyl)-pyrimidin-2-ylsulfanyl]-acetamide]
